Laboratory results published in US20140249084A1, “PTH-CONTAINING THERAPEUTIC/PROPHYLACTIC AGENT FOR OSTEOPOROSIS, CHARACTERIZED IN THAT PTH IS ADMINISTERED ONCE A WEEK IN A UNIT DOSE OF 100 TO 200 UNITS” (ASAHI KASEI PHARMA CORPORATION, priority 2009, published 2014).

What was measured:
[1] = test system: patients diagnosed with primary osteoporosis; test: Fractures at sites other than the vertebrae (roentgen films), Working Example 1; type: in vivo, human; settings: fractures of sites other than the vertebrae
Experimental: Both the 5 and 100 unit groups were administered two tablets of a calcium agent (containing 500 mg of precipitated calcium carbonate [200 mg as calcium] per tablet) once a day.
The osteoporosis patients were classified as condition shown in Table 1 based on the bone fracture risk factors present, as in Non-patent Reference 13, and compared. High-risk patients were defined as having all three factors involving age, prevalent vertebral fractures, and bone density or bone atrophy; low-risk patients were defined as other than the above.

[2] = test system: high-risk patients diagnosed with primary osteoporosis; test: New vertebral fractures (incl. multiple), Working Example 2 (200 units once a week vs placebo, 72 weeks); type: in vivo, human; settings: for New vertebral fractures: Incidence (%) / New vertebral fractures: No. of subjects: 72 weeks; for No. with fractures: new vertebral fractures
From the text: The above patients also took two tablets of a calcium agent once a day after dinner. […] The preparation contained precipitated calcium carbonate, magnesium carbonate, cholecalciferol (vitamin D3), and the like as components and is marketed under the trade name New Calcichew (trademark) D3″ (sold by: Daiichi Sankyo Health Care, manufactured and sold by: Nitto Pharmaceutical Industries, Ltd.).
The numbers of patients administered the test drug and control were 290 (also sometimes referred to as the test drug group in the working example) and 288 (also sometimes referred to as the control group in the working example), respectively. The total number administered was 578. However, the number in each group sometimes differs depending on the type of test and is expressed, for example, by (n=**) or the number evaluated, or the like.
(§1) The incidence of bone fractures was checked by frontal and lateral x-rays of the fourth thoracic to the fourth lumbar spine taken at the start and every 24 weeks thereafter.
Here, “multiple vertebral fractures” was defined as two or more new vertebral fractures. When the incidence of multiple vertebral fractures (number of cases) was compared in the test drug group (n=261) and control group (n=281) after 72 weeks of administration, it was 2.1% (6 cases) in the control group and 0.8% (2 cases) in the test drug group.

[3] = test system: high-risk patients diagnosed with primary osteoporosis; test: Worsening vertebral fractures, Working Example 2; type: in vivo, human; settings: FAS, 200 units once a week
From the text: The vertebral fractures in the present invention also include both new fractures and worsening fractures. […] New and worsening [fractures] can be classified by the grade increase pattern according to the criteria of Genant. Concretely speaking, a fracture is diagnosed as a new fracture when a change is found from grade 0 to grade 1, 2, or 3. It can be regarded as a worsening fracture when a change is found from grade 1 to grade 2 or 3 or from grade 2 to grade 3. The vertebral height was measured according to the method of Inoue et al. (Non-patent reference 35) and the method of Hayashi et al. (Non-patent Reference 36) to accurately assess the changes in grade.
as §1

[4] = test system: high-risk patients diagnosed with primary osteoporosis; test: Lumbar spine bone density by DXA, Working Example 2; type: in vivo, human; settings: 200 units once a week; for Change in bone density (%): patients taking glucocorticoid
Experimental: For the bone density of the lumbar spine, the density of the second to fourth lumbar spine was measured at the start and every 24 weeks thereafter using dual-energy x-ray absorptiometry (DXA).

[5] = test system: high-risk patients diagnosed with primary osteoporosis; test: CT geometry of the femur (multislice CT), Working Example 2; type: in vivo, human; settings: 200 units once a week
Experimental: For the CT geometry, the proximal part of the femur was measured at the start and after 48 and 72 weeks using multislice CT scan.
The effects of the test drug on three parts of the femur (neck of the femur, trochanter, and shaft of the femur) were studied using ordinary CT scans.

[6] = in vivo
Experimental: The Lumbar spine bone mineral density and occurrence of bone fractures were checked as bone assessments. For the Lumbar spine bone mineral density, the bone density of the second to fourth lumbar spine was measured at the start and every six months thereafter using dual-energy x-ray absorptiometry (DXA). For the frequency of bone fractures, x-rays were taken from the front and side of the fourth thoracic to the fifth lumbar spine at the start and every six months thereafter, and new vertebral fractures were assessed by comparison of the roentgen films at the start and at each point in time thereafter using the method of Genant et al. (Non-patent Reference 14) as a reference. In locations other than the vertebrae, fractures were evaluated by checking by roentgen films. Blood samples were also taken from all patients at the beginning and during administration, and the general laboratory test values, including the calcium concentration, were measured. The administration period in high-risk patients (DXA and new vertebral fractures were assessed collectively at the center; fractures of other than vertebrae were assessed by the investigator based on the roentgen films) was 85.1±20.8 weeks in the 5 unit group and 83.7±19.8 weeks in the 100 unit group. […] The administration period in low-risk patients was 72.7±19.4 weeks in the 5 unit group and 88.3±21.3 weeks in the 100 unit group.

[7] = in vivo; remark: listed apart in the source
From the text: The incidence of adverse events was studied after administering the test drug to the a group of osteoporosis patients having normal renal function, a group of osteoporosis patients having mild renal dysfunction, and a group of osteoporosis patients having moderate renal dysfunction.

[8] = in vivo; remark: listed apart in the source
[9] = No. of fractures: Five or more, 200 units once a week
[10] = No. of fractures: Four, 200 units once a week
[11] = No. of fractures: One, 200 units once a week
[12] = No. of fractures: Three, 200 units once a week
[13] = No. of fractures: Two, 200 units once a week
[14] = history of Alfacalcidol, 200 units once a week
[15] = history of Calcitriol, 200 units once a week
[16] = history of Calcium L-aspartate, 200 units once a week
[17] = history of Calcium lactate, 200 units once a week
[18] = history of Elcatonin, 200 units once a week
[19] = history of Menatetrenone, 200 units once a week
[20] = history of Raloxifene hydrochloride, 200 units once a week
[21] = patients taking glucocorticoid, 200 units once a week
[22] = two or more new vertebral fractures, after 72 weeks, 200 units once a week

Substance: teriparatide acetate
- No. with fractures (persons) ([1]; high-risk patients, 5 units once a week): 6 persons
- No. with fractures (persons) ([1]; high-risk patients, 100 units once a week): 1 persons
- No. with fractures (persons) ([1]; low-risk patients, 5 units once a week): 1 persons
- No. with fractures (persons) ([1]; low-risk patients, 100 units once a week): 0 persons
- Occurrence of new vertebral fractures after 48 weeks ([2]; 48 to 72 weeks division, 200 units once a week): no new vertebral fractures occurred after 48 weeks
- New vertebral fractures, No. with fractures ([2]; FAS, No. evaluated 261): 7
- Difference between PTH200 group and P group after 72 W (%) ([2]; FAS, incidence of new vertebral fractures after 72 W): 11.4%
- New vertebral fractures: Incidence (%) [2, 9]: 0.0%
- New vertebral fractures: No. of subjects [2, 9]: 0
- New vertebral fractures: Incidence (%) [2, 10]: 0.0%
- New vertebral fractures: No. of subjects [2, 10]: 0
- New vertebral fractures: Incidence (%) [2, 11]: 1.9%
- New vertebral fractures: No. of subjects [2, 11]: 5
- New vertebral fractures: Incidence (%) [2, 12]: 0.0%
- New vertebral fractures: No. of subjects [2, 12]: 0
- New vertebral fractures: Incidence (%) [2, 13]: 0.8%
- New vertebral fractures: No. of subjects [2, 13]: 2
- New vertebral fractures, No. with fractures ([2]; Time after administration >24 W-≦48 W, No. evaluated 219): 2
- New vertebral fractures, No. with fractures ([2]; Time after administration >48 W-≦72 W, No. evaluated 206): 0
- New vertebral fractures, No. with fractures ([2]; Time after administration ≦24 W, No. evaluated 261): 6
- Incidence of new vertebral fractures (%) ([2]; creatinine clearance at start Abnormal (<80), After 24 W, 200 units once a week): 2.8%
- Incidence of new vertebral fractures (%) ([2]; creatinine clearance at start Abnormal (<80), After 48 W, 200 units once a week): 3.4%
- Incidence of new vertebral fractures (%) ([2]; creatinine clearance at start Abnormal (<80), After 72 W, 200 units once a week): 3.4%
- Incidence of new vertebral fractures (%) ([2]; creatinine clearance at start Normal (≧80), After 24 W, 200 units once a week): 0.0%
- Incidence of new vertebral fractures (%) ([2]; creatinine clearance at start Normal (≧80), After 48 W, 200 units once a week): 0.0%
- Incidence of new vertebral fractures (%) ([2]; creatinine clearance at start Normal (≧80), After 72 W, 200 units once a week): 0.0%
- New vertebral fractures: No [2, 14]: 62
- New vertebral fractures: Yes [2, 14]: 1
- New vertebral fractures: No [2, 15]: 7
- New vertebral fractures: Yes [2, 15]: 1
- New vertebral fractures: No [2, 16]: 28
- New vertebral fractures: Yes [2, 16]: 1
- New vertebral fractures: No [2, 17]: 8
- New vertebral fractures: Yes [2, 17]: 0
- New vertebral fractures: No [2, 18]: 35
- New vertebral fractures: Yes [2, 18]: 2
- New vertebral fractures: No [2, 19]: 6
- New vertebral fractures: Yes [2, 19]: 0
- New vertebral fractures: No [2, 20]: 20
- New vertebral fractures: Yes [2, 20]: 0
- No. with fractures ([2]; Complication (diabetes): No, 200 units once a week): 7
- No. with fractures ([2]; Complication (diabetes): Yes, 200 units once a week): 0
- No. with fractures ([2]; Complication (hyperlipidemia): No, 200 units once a week): 4
- No. with fractures ([2]; Complication (hyperlipidemia): Yes, 200 units once a week): 3
- No. with fractures ([2]; Complication (hypertension): No, 200 units once a week): 3
- No. with fractures ([2]; Complication (hypertension): Yes, 200 units once a week): 4
- No. with fractures ([2]; Prior osteoporosis treatment (no), 200 units once a week): 4
- No. with fractures ([2]; Prior osteoporosis treatment (yes), 200 units once a week): 3
- No. with fractures ([2]; creatinine clearance at start Abnormal (<80), 200 units once a week): 6
- No. with fractures ([2]; creatinine clearance at start Normal (≧80), 200 units once a week): 0
- Existence of new vertebral fractures, Fracture: no [2, 21]: 29
- Existence of new vertebral fractures, Fracture: yes [2, 21]: 0
- Incidence of multiple vertebral fractures [2, 22]: 0.8%
- Multiple vertebral fractures (number of cases) [2, 22]: 2 cases
- Difference between test drug group and control group after 72 W (%) ([3]; incidence of worsening fractures): 1.8%
- No. with fractures ([3]; worsening fractures): 1
- Percentage change in bone density (%) ([4]; 24 W, history of Alfacalcidol): 3.11%
- Percentage change in bone density (%) ([4]; 24 W, history of Calcitriol): 3.50%
- Percentage change in bone density (%) ([4]; 24 W, history of Calcium L-aspartate): 3.78%
- Percentage change in bone density (%) ([4]; 24 W, history of Calcium lactate): 1.96%
- Percentage change in bone density (%) ([4]; 24 W, history of Elcatonin): 3.95%
- Percentage change in bone density (%) ([4]; 24 W, history of Menatetrenone): 2.70%
- Percentage change in bone density (%) ([4]; 24 W, history of Raloxifene hydrochloride): 1.77%
- Change in bone density (%) ([4]; 24 W): 3.50%
- Percentage change in bone density (%) ([4]; 48 W, history of Alfacalcidol): 5.47%
- Percentage change in bone density (%) ([4]; 48 W, history of Calcitriol): 4.40%
- Percentage change in bone density (%) ([4]; 48 W, history of Calcium L-aspartate): 6.16%
- Percentage change in bone density (%) ([4]; 48 W, history of Calcium lactate): 3.45%
- Percentage change in bone density (%) ([4]; 48 W, history of Elcatonin): 3.59%
- Percentage change in bone density (%) ([4]; 48 W, history of Menatetrenone): 3.04%
- Percentage change in bone density (%) ([4]; 48 W, history of Raloxifene hydrochloride): 4.96%
- Change in bone density (%) ([4]; 48 W): 5.97%
- Percentage change in bone density (%) ([4]; 72 W, history of Alfacalcidol): 6.47%
- Percentage change in bone density (%) ([4]; 72 W, history of Calcitriol): 6.38%
- Percentage change in bone density (%) ([4]; 72 W, history of Calcium L-aspartate): 5.85%
- Percentage change in bone density (%) ([4]; 72 W, history of Calcium lactate): 4.93%
- Percentage change in bone density (%) ([4]; 72 W, history of Elcatonin): 5.36%
- Percentage change in bone density (%) ([4]; 72 W, history of Menatetrenone): 4.32%
- Percentage change in bone density (%) ([4]; 72 W, history of Raloxifene hydrochloride): 4.59%
- Change in bone density (%) ([4]; 72 W): 6.82%
- Volume bone mineral density (cortical bone) [vBMD cortical], change from baseline after 48 weeks (%) ([5]; Neck of femur): −0.77%
- Volume bone mineral density (total) [vBMD total], change from baseline after 48 weeks (%) ([5]; Neck of femur): 0.92%
- Volume bone mineral density (total) [vBMD total], change from baseline after 72 weeks (%) ([5]; Neck of femur): 0.15%
- Volume bone mineral density (cortical bone) [vBMD cortical], change from baseline after 48 weeks (%) ([5]; Shaft of femur): 0.59%
- Volume bone mineral density (cortical bone) [vBMD cortical], change from baseline after 72 weeks (%) ([5]; Shaft of femur): 0.18%
- Maximum section modulus (SM (Z min)), change from baseline after 72 weeks (%) ([5]; Trochanter): 3.20%
- Volume bone mineral density (cortical bone) [vBMD cortical], change from baseline after 48 weeks (%) ([5]; Trochanter): −0.49%
- Volume bone mineral density (total) [vBMD total], change from baseline after 72 weeks (%) ([5]; Trochanter): 0.95%
- Hypercalcemia [6]: did not cause hypercalcemia at either dose
- Tendency for the serum calcium to rise [6]: no tendency for the serum calcium to rise was seen
- Adverse events: No (%) [7]: 4.4%
- Adverse events: No, No. of cases [7]: 2
- Adverse events: Point estimate of the difference [7]: 2.0
- Adverse events: Yes, No. of cases [7]: 65
- Side effects: No, No. of cases [8]: 27
- Side effects: Yes, No. of cases [8]: 22
